According to paper PMC5310922, “A high-throughput phenotypic screen identifies clofazimine as a potential treatment for cryptosporidiosis” (PLoS Neglected Tropical Diseases, 2017):
Read-outs that look alike come from different tables or passages of the source.

Tests used:
Cryptosporidium parvum = assay: C. parvum proliferation in HCT-8 cells, 48 h high-content imaging assay; format: cell-based, Cryptosporidium parvum (Iowa strain); conditions: for EC50: Cryptosporidium parvum, 48 h; for EC99 against C. parvum: concentration used in washout assay
[1] = tested on: Cryptosporidium hominis (TU502); assay: C. hominis proliferation in HCT-8 cells, 48 h high-content imaging assay; format: cell-based; conditions: Cryptosporidium hominis
Experimental: Methods for continuous, in vitro cultivation of Cryptosporidium spp. have not been well established. Instead, in vivo oocyst propagation of C. parvum is performed in calves, a more promiscuous Cryptosporidium species for animal and human infections. For C. hominis, gnotobiotic piglets are the primary means of propagation. The calf is the more accessible model, making C. parvum the more convenient species to screen. However, C. hominis is equally clinically relevant with regards to human cryptosporidiosis. […] High purity powders of the 10 filtered C. parvum Bioactives screen hits and both GHCDL screen hits were tested against C. hominis (TU502) to confirm activity against both species.
(§1) Cells were then plated (5 μL/well) into 1536-well assay plates at a density of 5.5×10^5 cells/mL (2,750 cells/well).
C. parvum oocysts (Iowa strain, isolated from infected calves) were purchased from the Sterling Parasitology Laboratory, University of Arizona, and stored at 4°C for ≤ 3 months in an antibiotic solution (0.01% Tween 20 containing 100 U/mL penicillin and 100 μg/mL gentamicin). C. hominis oocysts (TU502, isolated from gnotobiotic piglets) were purchased from the Tzipori Laboratory, Cummings School of Veterinary Medicine, Tufts University, and stored at 4°C for ≤ 2 weeks in an antibiotic solution (100 U/mL penicillin and 100 μg/mL streptomycin). For infection of assay plates, 24 h after cell seeding, oocysts were excysted and prepared for inoculation as previously described. Briefly, the oocysts were diluted into 1 mL pre-warmed 10 mM HCl and then incubated in a 37°C water bath for 10 min. Oocysts were then pelleted at 3,000×g for 1 min in a microcentrifuge (Thermo), and the supernatant was carefully aspirated. Oocysts were resuspended in 2 mM sodium taurocholate in DPBS++ (with 0.9 mM CaCl2 and 0.5 mM MgCl2) and incubated at room temperature for 20 min. After incubation in bile salts, the oocysts were diluted 1:100 and free sporozoites and intact oocysts were enumerated to determine the percentage of excystation.
Plates were then washed twice with phosphate buffered saline (PBS). […] To prevent non-specific binding, the cells were blocked with SuperBlock™ T20 blocking agent (Thermo) for 1 h at room temperature. Cryptosporidium parasites were stained with 1 μg/mL fluorescein isothiocyanate (FITC)-conjugated Vicia villosa lectin (Vector Laboratories) in 1:10 diluted SuperBlock™ in PBS-T, supplemented with 3 μM 4',6-diamidino-2-phenylindole (DAPI) to visualize host cell nuclei. Staining was for 1 h at room temperature in the dark. Finally, cells were washed twice with PBS-T and the plates were sealed with adhesive foil. The plates were imaged with a CellInsight CX5 High Content Screening Platform (Thermo) with a 10× objective. […] The software identified primary objects (HCT-8 host cells) and spots within allowed distances to the nuclei (Cryptosporidium). Both cytotoxicity against HCT-8 cells (number of nuclei relative to DMSO-treated controls) and Cryptosporidium inhibition (spot counts relative to DMSO-treated controls) were assessed.
Images were processed by the HCS Studio Scan software, and Selected Object Count (HCT-8 cells) and Spot Count (Cryptosporidium) were analyzed in Genedata Screener (v13.0-Standard). Spot Count and Selected Object Count were normalized to neutral controls minus inhibitors (floxuridine for Spot Count, and puromycin for Selected Object Count).

in vitro = conditions: human
Experimental: as §1
Plates were then washed twice with phosphate buffered saline (PBS). […] To prevent non-specific binding, the cells were blocked with SuperBlock™ T20 blocking agent (Thermo) for 1 h at room temperature. Cryptosporidium parasites were stained with 1 μg/mL fluorescein isothiocyanate (FITC)-conjugated Vicia villosa lectin (Vector Laboratories) in 1:10 diluted SuperBlock™ in PBS-T, supplemented with 3 μM 4',6-diamidino-2-phenylindole (DAPI) to visualize host cell nuclei. Staining was for 1 h at room temperature in the dark. Finally, cells were washed twice with PBS-T and the plates were sealed with adhesive foil. The plates were imaged with a CellInsight CX5 High Content Screening Platform (Thermo) with a 10× objective. […] For 1536-well format assays (primary screening, triplicate reconfirmation, and dose-response reconfirmation, one microscopic field (802,511.39 μm^2) per well, and for the 384-well washout assay, 4 fields per well were captured. The software identified primary objects (HCT-8 host cells) and spots within allowed distances to the nuclei (Cryptosporidium). Both cytotoxicity against HCT-8 cells (number of nuclei relative to DMSO-treated controls) and Cryptosporidium inhibition (spot counts relative to DMSO-treated controls) were assessed.
Images were processed by the HCS Studio Scan software, and Selected Object Count (HCT-8 cells) and Spot Count (Cryptosporidium) were analyzed in Genedata Screener (v13.0-Standard). Spot Count and Selected Object Count were normalized to neutral controls minus inhibitors (floxuridine for Spot Count, and puromycin for Selected Object Count). For single-point primary assay plates, an additional run-wise median correction was applied to reduce screen artifacts (e.g. uneven dispense), whereas no correction was applied to triplicate reconfirmation and dose-response plates. For primary screening, a compound is considered a hit by a ≥ 70% reduction in Corrected Spot Count. Compounds that caused moderate cytotoxicity were filtered out (i.e., excluding all Corrected Selected Object Counts ≤ -60%). Dose-response curves were fit with Genedata Analyzer using the Smart Fit function.

[2] = HEK293T 72 h cytotoxicity (CellTiter-Glo); format: cell-based, human; conditions: human
Experimental: Two mammalian cell lines were used for counter-screening for general cytotoxicity of hit compounds: human embryonic kidney cells (HEK293T; ATCC CRL-3216) and human hepatocellular carcinoma cells (HepG2; ATCC HB-8065). […] Compounds were pre-spotted into tissue culture-treated white solid-bottomed 1536-well plates (Greiner) in a 1:3 dose-response dilution (top concentration 20 μM). HEK293T and HepG2 cells were diluted to 75×10^3 cells/mL and 150×10^3 cells/mL, respectively, and 5 μL/well were dispensed into assay plates with a MultiFlo FX Multi-Mode Dispenser (Biotek). […] At the completion of the assay, CellTiter-Glo (Promega) was prepared at 1:2 (reagent:water) of the manufacturer’s instructions, and 2 μL were dispensed into each well. After a 5 min incubation at room temperature, luminescence readings were measured with an EnVision Multilabel Plate Reader (Perkin Elmer). […] were uploaded into Genedata Screener (v13.0-Standard), and data normalized to DMSO- and puromycin-treated wells. A four-parameter non-linear regression curve fit was applied to dose-response data using Genedata to determine the half maximal cytotoxic concentration (CC50) of each compound.

C. parvum = assay: Host cell 3-h pre-treatment, with or without wash, then C. parvum infection; format: cell-based, Cryptosporidium parvum; conditions: for EC50: Cryptosporidium parvum, host cells pretreated 3 h, C. parvum, 48 hpi
Experimental: A set of parallel wells were also treated and not washed prior to infection. 48 hpi, infected cells were imaged as described above, and EC50s for each compound pre- and post-wash were determined.

[3] = HCT-8 cells, read-out: EC50 against C. parvum
[4] = in HCT-8 cells, value (SD; n), read-out: C. parvum 48H Assay EC50 [µM] (SD; n)
[5] = in HCT-8 cells, 48 h, value (SD; n), read-out: C. hominis 48H Assay EC50 [µM] (SD; n)

SMILES | EC50 (Cryptosporidium parvum; [3]) [µM] | EC50 (Cryptosporidium parvum; [4]) [µM] | EC99 against C. parvum (Cryptosporidium parvum) [µM] | EC50 [1, 5] [µM] | CC50 at 48 h (in vitro) [µM] | CC50 at 72 h [2] [µM] | EC50 (C. parvum; read-out: Post-wash EC50) [µM] | EC50 (C. parvum; read-out: Pre-wash EC50) [µM] | fold more potent against C. parvum than C. hominis (Cryptosporidium parvum; C. parvum vs C. hominis EC50) | EC50 ([1]; HCT-8, same in vitro host cell line, read-out: EC50 against C. hominis) [µM] | CC50 at 48 h (in vitro; HCT-8 cells) [µM] | CC50 at 72 h ([2]; HEK293T cells, 72 h, value (SD; n), read-out: HEK293T 72H Cytotoxicity CC50 [µM] (SD; n)) | inhibition of C. parvum proliferation after compound removal by repeated washes (C. parvum; host cell pre-treatment, dose-response)
CCOc1ccc2cc(-c3nn(CC4CCN(C)CC4)c4ncnc(N)c34)ccc2c1 [BKI-1294] | 0.4 | 0.388 | 2 | 0.457 | > 12.5 | 12.4 | 0.955 | > 12.5 | – | – | – | – | –
CC(C)/N=c1\cc2n(-c3ccc(Cl)cc3)c3ccccc3nc-2cc1Nc1ccc(Cl)cc1 [Clofazimine] | 0.015 | 0.0149 | 0.03 | 0.341 | – | – | 0.007 | 0.023 | ~ 20 fold | 0.34 | > 12.5 | > 20 | near equipotent inhibition
